The record followed here is ChEMBL document CHEMBL1143441, “New classes of Gram-positive selective antibacterials: inhibitors of MRSA and surrogates of the causative agents of anthrax and tuberculosis” (2008).

In the experiment the test system is Mycobacterium tuberculosis. Put plainly: Antimicrobial activity against Mycobacterium bovis BCG by NCCLS M7-A6 method. Particulars: variant bovis BCG. Type of experiment: functional.

Each structure is given as a SMILES string. Values after ≈ are worked out from the molar mass of the structure shown.

For orientation: MIC means the lowest concentration found to suppress growth. `COc1cc(O)cc(/C=C/c2ccccc2)c1` [PINOSYLVIN METHYL ETHER] displayed an MIC of 26 µg/mL (≈ 115 µM).
